Measured values: US10239851B2 (priority 2014, dated 2019)
Where two headings read alike, the source gives them in different places. Marks after values point to notes of the source that are not given here.

What was measured:
KM mice = assay: ED50 and LD50 test concerning anesthesia (sequential method) in mice; type: in vivo; conditions: for Mouse ED50: anesthesia (loss of righting reflex); for Mouse ED50 / Mouse LD50: caudal vein injection
Method: (§1) Test samples for the experiment on rabbit were formulated to have corresponding concentrations based on the results from a preliminary test. […] Rats and mice were administered with samples having a fixed concentration of drugs, while the volume of administration altered according to actual situation. The volume of administration to rabbits was 1 mL/kg body weight.
(§2) ED50 and LD50 values concerning anesthesia were determined using a sequential method. Healthy KM mice (male), SD rats (male) and New Zealand White rabbits were used for test. […] For rabbits, the compounds were administered by injection at a constant rate via ear vein for 30 seconds. Before the test, a preliminary test was conducted to determine an approximate dosage (volume of administration) that leads to anesthetization (or death) of animals, which was set as the middle dosage in the formal test. […] The disappearance of righting reflex or death was used as indicators of pharmacological efficacy or toxicity, respectively. The formal test began with the administration of the middle dosage. If animals were anesthetized, a lower dosage was administered; if animals were not anesthetized, a higher dosage was administered, until the cycle was repeated for 3-4 times. LD50 and ED50 were calculated by a sequential method aot425 software. TI was calculated according to the following equation: TI=LD50/ED50.

SD rats = assay: ED50 and LD50 test concerning anesthesia (sequential method) in rats; type: in vivo; conditions: for Rat ED50: anesthesia (loss of righting reflex); for Rat ED50 / Rat LD50: caudal vein injection
Method: as §1, §2

[1] = system: New Zealand White rabbits; assay: ED50 and LD50 test concerning anesthesia (sequential method) in rabbits; type: in vivo; conditions: for TI index: TI=LD50/ED50; for LD50 / ED50: injection via ear vein; for LD50: death; for ED50: disappearance of righting reflex
Method: as §1, §2

Kunming mice = assay: Latent period and persistent period of anesthesia in mice; type: in vivo; conditions: intravenous injection
[2] = formula F derivatives, rabbit plasma, 37° C.
Method: (§3) 0.1 ml samples were taken from each of the solutions, added respectively to 1 ml of blood plasma of rabbit (taken from New Zealand white rabbits, treated according to conventional methods, anticoagulated with heparin) or 1 ml of blood plasma of rat (taken from live SD rats, treated according to conventional methods, anticoagulated with heparin), homogeneously mixed, and placed in a thermostatic water bath at 37° C. for incubation with time being recorded. Samples were taken at different time points after the experiment began, and 2 ml of acetonitrile was immediately added. The samples were shaken and centrifuged for 5 min (15,000 rpm), and the supernatant was then taken for HPLC analysis.

[3] = formula F derivatives, rat plasma, 37° C.
Method: as §3

[4] = In vitro dissociation of the water soluble taxane derivatives in blood plasma of rat; type: in vitro ADME, SD rats; conditions: 37° C.
Method: The obtained water soluble taxane derivatives were formulated as 0.2 mg/ml aqueous solutions. […] After 2 min, 5 min and 10 min of incubation, 0.2 ml of solutions were respectively taken from each of the samples, and added to acetonitrile (0.4 ml) cooled to −20° C. for precipitation of protein.

[5] = In vitro dissociation of the water soluble taxane derivatives in blood plasma of rabbit; type: in vitro ADME, New Zealand white rabbits; conditions: 37° C.
Method: The obtained water soluble taxane derivatives were formulated as 0.2 mg/ml aqueous solutions. […] After 5 min, 20 min and 60 min of incubation, 0.2 ml of solutions were respectively taken from each of the samples, and added to acetonitrile (0.4 ml) cooled to −20° C. for precipitation of protein.

[6] = system: human prostate cancer PC-3; conditions: PC-3 xenograft, nude mice; 33.6 mg/kg, D0 IV, single dose; D20;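 further: human prostate cancer PC-3 cells implanted under the skin of nude mice to form the xenograft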
Text: Test of the inhibitory activity of the water soluble docetaxel derivatives on subcutaneously xenografted tumor of human prostate cancer PC-3 in nude mice: evaluating and comparing the inhibitory activity of the water soluble docetaxel derivatives and docetaxel on subcutaneously xenografted tumor of human prostate cancer PC-3 in nude mice.
Human prostate cancer PC-3 cells were subcutaneously inoculated into nude mice. After the tumor volume reached 100-150 mm^3, the animals were randomly divided into several groups, and administered with the water soluble docetaxel derivatives of the present invention and docetaxel, respectively once on the same day (D0). The tumor volume was measured 2-3 times per week, the animals were weighed and the data were recorded until day 20 (D20) after grouping.
The tumor volume (V) was calculated according to the equation: V=½×a×b^2, wherein a and b represent the length and the width, respectively.
T/C (%)=(T−T0)/(C−C0)×100, wherein T and C represent the tumor volume at the end of the experiment; and T0 and C0 represent the tumor volume at the beginning of the experiment.

[7] = 3 mg/ml solution, confirmation test
[8] = 6 mg/ml solution, confirmation test
[9] = dosage 2 * ED50, 3 mg/ml solution
[10] = dosage 2 * ED50, 6 mg/ml solution

Compound	TI Mouse (KM mice; [7])	TI Mouse (KM mice; 3 mg/ml solution, first test)	TI Mouse (KM mice; [8])	TI Mouse (KM mice; 6 mg/ml solution, first test)	Mouse ED50 (KM mice; [7]) [mg/kg]	Mouse ED50 (KM mice; 3 mg/ml solution, first test) [mg/kg]	Mouse ED50 (KM mice; [8]) [mg/kg]	Mouse ED50 (KM mice; 6 mg/ml solution, first test) [mg/kg]	Mouse LD50 (KM mice; [7]) [mg/kg]	Mouse LD50 (KM mice; 3 mg/ml solution, first test) [mg/kg]	Mouse LD50 (KM mice; [8]) [mg/kg]	Mouse LD50 (KM mice; 6 mg/ml solution, first test) [mg/kg]	TI Rat (SD rats; 3 mg/ml solution)	TI Rat (SD rats; 6 mg/ml solution)	Rat ED50 (SD rats; 3 mg/ml solution) [mg/kg]	Rat ED50 (SD rats; 6 mg/ml solution) [mg/kg]	Rat LD50 (SD rats; 3 mg/ml solution) [mg/kg]	Rat LD50 (SD rats; 6 mg/ml solution) [mg/kg]	TI index [1]	LD50 [1]	further results
CC(C)c1cccc(C(C)C)c1OC(=O)C(F)CC(=O)[O-].[Na+] [Compound F7, propofol 3-carboxyl-2(R)-fluorobutyrate sodium salt]	2.6	2.8*	3.1	2.4*	19.2	21.4	18.1	20.7	51.6	59.8	56.6	51.2	3.0	3.5	15.7	12.5	47.4	44.4	2.6	36.7 (33.8-39.4) mg/kg	ED50 [1]: 13.9 (11.1-16.8) mg/kg; Latent Period (Kunming mice; [9]): 20.2 ± 0.6 s; Persistent period (Kunming mice; [9]): 335.5 ± 218.1 s; Latent Period (Kunming mice; [10]): 16.2 ± 2.2 s; Persistent period (Kunming mice; [10]): 517 ± 231 s; Sampling time/dissociation percent (%) 15 s [2]: 46.3%; Sampling time/dissociation percent (%) 30 s [2]: 72.8%; Sampling time/dissociation percent (%) 5 s [3]: 58.8%; Sampling time/dissociation percent (%) 15 s [3]: 71.3%; Sampling time/dissociation percent (%) 30 s [3]: 85.4%
CC(C)c1cccc(C(C)C)c1OC(=O)C(F)CCC(=O)[O-].[Na+] (racemic) [Compound F1, propofol 4-carboxyl-2(R,S)-fluorovalerate sodium salt]	2.8	3*	3.3	2.7*	18.6	20.8	16.7	18.2	52.3	63.4	55.4	49.7	3.0	3.7	14.6	11.3	44.1	42.3	2.8	34.4 (32.1-36.5) mg/kg	ED50 [1]: 12.2 (10.6-14.6) mg/kg; Latent Period (Kunming mice; [9]): 18.6 ± 0.7 s; Persistent period (Kunming mice; [9]): 349.7 ± 229.4 s; Latent Period (Kunming mice; [10]): 15.2 ± 1.4 s; Persistent period (Kunming mice; [10]): 523 ± 248 s; Sampling time/dissociation percent (%) 15 s [2]: 47.5%; Sampling time/dissociation percent (%) 30 s [2]: 75.5%; Sampling time/dissociation percent (%) 5 s [3]: 64.1%; Sampling time/dissociation percent (%) 15 s [3]: 70.2%; Sampling time/dissociation percent (%) 30 s [3]: 86.7%
CC(=O)O[C@@]12CO[C@@H]1C[C@H](O)[C@@]1(C)C(=O)[C@H](O)C3=C(C)[C@@H](OC(=O)[C@H](OC(=O)C(F)CCN(C)C)[C@@H](NC(=O)OC(C)(C)C)c4ccccc4)C[C@@](O)([C@@H](OC(=O)c4ccccc4)[C@H]21)C3(C)C.CS(=O)(=O)O (stereo partly drawn) [Compound C6, 2′-O-[4-(N,N-dimethyl)amino-2(R,S)-fluorobutyryl]docetaxel methanesulfonate]	–	–	–	–	–	–	–	–	–	–	–	–	–	–	–	–	–	–	–	–	dissociation percent ([4]; 2 min): 59.1%; dissociation percent ([4]; 5 min): 93.3%; dissociation percent ([4]; 10 min): 100%; dissociation percent ([5]; 5 min): 76.8%; dissociation percent ([5]; 20 min): 97.8%; dissociation percent ([5]; 60 min): 100%; T/C (%) D20 [6]: −76%
CC(=O)O[C@@]12CO[C@@H]1C[C@H](O)[C@@]1(C)C(=O)[C@H](O)C3=C(C)[C@@H](OC(=O)[C@H](OC(=O)[C@@H](F)CCN(C)C)[C@@H](NC(=O)OC(C)(C)C)c4ccccc4)C[C@@](O)([C@@H](OC(=O)c4ccccc4)[C@H]21)C3(C)C.CS(=O)(=O)O [Compound C5, 2′-O-[4-(N,N-dimethyl)amino-2(S)-fluorobutyryl]docetaxel methanesulfonate]	–	–	–	–	–	–	–	–	–	–	–	–	–	–	–	–	–	–	–	–	dissociation percent ([4]; 2 min): 58.9%; dissociation percent ([4]; 5 min): 93.3%; dissociation percent ([4]; 10 min): 100%; dissociation percent ([5]; 5 min): 81.2%; dissociation percent ([5]; 20 min): 93.1%; dissociation percent ([5]; 60 min): 100%; T/C (%) D20 [6]: −76%
